From patent US8524304B2, “High-potency sweetener composition with probiotics/prebiotics and compositions sweetened therewith” (The Coca-Cola Company, priority 2005, dated 2013)

Columns and labels:
[1] = Rate of dissolution of rebaudioside A polymorph and amorphous forms in H2O at 25° C.; type: physicochemical
[2] = type: physicochemical
Procedure: A solution of rebaudioside A (>97% pure by HPLC ) was prepared in double distilled water (12.5 gm in 50 mL, 25% concentration) by stirring the mixture at 40° C. for 5 minutes. An amorphous form of rebaudioside A was formed by immediately using the clear solution for spray drying with the Lab-Plant spray drier SD-04 instrument (Lab-Plant Ltd., West Yorkshire, U.K.). The solution was fed through the feed pump into the nozzle atomizer which atomized it into a spray of droplets with the help of a constant flow of nitrogen/air. […] This dry powder (11-12 g, H2O 6.74%) was discharged continuously from the drying chamber and was collected in a bottle.

[3] = Sensory evaluation of sweetness linger by a panel of experts; type: in vivo; design: key: 0: no sweetness linger; 1: very slight sweetness linger; 2: slight sweetness linger; 3: moderate sweetness linger; 4: moderately high sweetness linger; 5: high sweetness linger; conditions: scale 0-5
Procedure: Sensory evaluation of the samples prepared in Example Set G was carried out under the following protocol, similar to that described hereinabove. In this test protocol, none of the samples were swallowed. All samples were expectorated and the mouth was rinsed with water after the tasting. Immediately upon sensing maximal sweetness, the sample was expectorated, the mouth was rinsed with water and the rate of sweetness decay (“Sweetness Linger”) was measured, where attention was focused on the sweetness 3-4 min after the water rinse. After sample tasting was complete, a salty oyster cracker was chewed followed by a water rinse, and at least 5 minutes followed before tasting the next sample. The sweetness linger was rated by a panel of experts in the sensory evaluation of foods and beverages using the following scale: 0=no sweetness linger, 1=very slight sweetness linger, 2=slight sweetness linger, 3=moderate sweetness linger, 4=moderately high sweetness linger, 5=high sweetness linger.
The “Sweetness Linger” rating for sucrose observed by this protocol is defined as 0. The Sweetness Linger of a 500 ppm of REBA control sample is defined as 5. Experimental samples were tasted by the same protocol, always allowing sufficient time between samples to ensure re-equilibration of the sensory system. Re-tasting of control samples during the course of the experiment was allowed and encouraged. […]
Sweet taste improving compositions were combined with a REBA solution to determine their effect on sweetness linger, Screening of the initial sample, or further dilutions, allowed identification of concentrations which were just above-threshold, herein defined as “near-threshold concentrations.” The near-threshold additive concentrations, a 6- to 100-fold higher higher additive concentration (depending on the off-taste intensity), and a mid-level additive concentration (halfway between the near-threshold and higher additive concentration) were evaluated to determine the effect on sweetness linger of a REBA solution. […]

| Compound | Rate of dissolution in H2O at 25° C. [1] | solubility in water at room temperature [2] | sweetness linger ([3]; Example Set G: citric acid/potassium citrate composition equivalent to a diet lemon-lime beverage, 400 ppm REBA base, sweetness 3-4 min after water rinse) | sweetness linger ([3]; Example Set H: carbon-treated water with phosphoric acid (75%) to pH 2.4-2.5, 500 ppm REBA base) | Sweetness Linger rating ([3]; control ratings defined for the protocol) |
| --- | --- | --- | --- | --- | --- |
| C=C1C[C@@]23CC[C@H]4[C@@](C)(CCC[C@@]4(C)C(=O)O[C@@H]4O[C@H](CO)[C@@H](O)[C@H](O)[C@H]4O)[C@@H]2CC[C@]1(O[C@@H]1O[C@H](CO)[C@@H](O)[C@H](O[C@@H]2O[C@H](CO)[C@@H](O)[C@H](O)[C@H]2O)[C@H]1O[C@@H]1O[C@H](CO)[C@@H](O)[C@H](O)[C@H]1O)C3 [Form 4, rebaudioside A] | High (>35%/5 %/5 minutes | > 35.0% | – | – | – |
| C=C1C[C@@]23CC[C@H]4[C@@](C)(CCC[C@@]4(C)C(=O)O[C@@H]4O[C@H](CO)[C@@H](O)[C@H](O)[C@H]4O)[C@@H]2CC[C@]1(O[C@@H]1O[C@H](CO)[C@@H](O)[C@H](O[C@@H]2O[C@H](CO)[C@@H](O)[C@H](O)[C@H]2O)[C@H]1O[C@@H]1O[C@H](CO)[C@@H](O)[C@H](O)[C@H]1O)C3 [REBA, rebaudioside A] | – | – | 5 | 5 | 5 |
